IC50 data for 26 compounds are collected here from patent US8883782B2, “Spiro-tetracyclic ring compounds as beta-secretase modulators and methods of use” (Amgen Inc., priority 2010, dated 2014).

Read-outs that look alike come from different tables or passages of the source.

Experiment [1] deals with Aβ40 in conditioned medium of cells stably expressing Amyloid Precursor Protein (APP). Put plainly: In vitro BACE cell-based assay (Aβ40 in conditioned medium, sandwich ELISA). Conditions: read-out: HEK cell assay. The method in brief:
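Conditioned medium from stably APP-expressing cells treated with compound dose series is assayed for Aβ40 by sandwich ELISA with time-resolved fluorescence detection. IC50 is calculated from percent inhibition of Aβ40 against compound concentration.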
In general terms: In an ELISA, binding on a coated surface is turned into a signal by an enzyme label.

The target in experiment [2] is Beta Secretase enzyme (BACE) (Homo sapiens, UniProt P56817). The experiment in a line: In vitro enzymatic BACE FRET (fluorescence resonance energy transfer) assay. The class given is biochemical. Conditions: average IC50, enzyme assay; read-out: BACE 1 FRET assay. In outline:
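Run in 0.05 M acetate pH 4.2 with 10% DMSO final and 100 uM genapol; started by adding 50 nM FRET peptide substrate (fluorophore and quencher flanking the cleavage site), incubated one hour, then stopped with Tris to neutral pH before reading fluorescence.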

[3] abbreviates: Homo sapiens, HEK293, average IC50.
Setting [4] is: Homo sapiens, HEK293, average IC50, HEK cells.

Beta Secretase enzyme (BACE), sequence (P56817 46-501, species assumed): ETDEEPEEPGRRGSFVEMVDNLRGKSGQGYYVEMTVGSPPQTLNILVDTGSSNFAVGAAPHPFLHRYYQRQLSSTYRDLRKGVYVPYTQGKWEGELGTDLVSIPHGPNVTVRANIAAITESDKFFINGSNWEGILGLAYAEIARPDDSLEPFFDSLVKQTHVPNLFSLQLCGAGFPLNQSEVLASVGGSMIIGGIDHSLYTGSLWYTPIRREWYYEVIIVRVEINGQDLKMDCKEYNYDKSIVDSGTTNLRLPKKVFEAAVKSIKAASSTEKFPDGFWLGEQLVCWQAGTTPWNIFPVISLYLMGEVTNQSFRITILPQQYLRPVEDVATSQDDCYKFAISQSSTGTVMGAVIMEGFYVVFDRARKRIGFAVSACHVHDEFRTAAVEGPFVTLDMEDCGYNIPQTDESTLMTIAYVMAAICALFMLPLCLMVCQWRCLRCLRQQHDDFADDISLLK

Consider `NC1=N[C@@]2(CO1)c1cc(-c3cccnc3F)ccc1Oc1c(F)cc([C@H]3CCCOC3)cc12` [Example 287, (4S)-4′-fluoro-7′-(2-fluoro-3-pyridinyl)-2′-((3R)-tetrahydro-2H-pyran-3-yl)spiro[1,3-oxazole-4,9′-xanthen]-2-amine], for which the IC50 turned out to be 0.0217 µM in experiment [1] (setting [3]) and 0.0017 µM in experiment [2].
For `C[Si](C)(C)c1cc2c(nc1F)Oc1ccc(Br)cc1[C@@]21COC(N)=N1` [Example 90, (5S)-7-bromo-2-fluoro-3-(trimethylsilyl)spiro[chromeno[2,3-b]pyridine-5,4′-[1,3]oxazol]-2′-amine], the figures for the IC50 in experiment [1] (setting [3]) and in experiment [2] were 10 µM and 0.862 µM, respectively.
As to `CC1(C)C[C@H](c2cc3c(cn2)Oc2ccc(-c4cncnc4)cc2[C@@]32COC(N)=N2)CCO1` [Example 544, (5S)-3-((4R)-2,2-dimethyltetrahydro-2H-pyran-4-yl)-7-(5-pyrimidinyl)spiro[chromeno[2,3-c]pyridine-5,4′-[1,3]oxazol]-2′-amine], the IC50 in experiment [1] (setting [4]) is 0.121 µM; in experiment [2] it was 0.0084 µM.
In the case of `NC1=N[C@@]2(CO1)c1cc(Oc3cccc(Cl)n3)ccc1Oc1c(F)cc(N3CCOCC3)cc12` [Example 1060, (4S)-7′-((6-chloro-2-pyridinyl)oxy)-4′-fluoro-2′-(4-morpholinyl)spiro[1,3-oxazole-4,9′-xanthen]-2-amine], the IC50 in experiment [1] (setting [3]) turned out to be 0.318 µM; in experiment [2], 0.0335 µM.
The corresponding values for `CC1(C#Cc2ccc3c(c2)[C@@]2(COC(N)=N2)c2cc(N4CCC(F)(F)C4)ncc2O3)COC1` [Example 163, (5S)-3-(3,3-difluoro-1-pyrrolidinyl)-7-((3-methyl-3-oxetanyl)ethynyl)spiro[chromeno[2,3-c]pyridine-5,4′-[1,3]oxazol]-2′-amine] are 0.124 µM and 0.0174 µM.
Turning to `NC1=N[C@@]2(CO1)c1cc(-c3ccncc3F)ccc1Oc1cnc(-c3cccnc3F)cc12` [Example 574, (5S)-3-(2-fluoro-3-pyridinyl)-7-(3-fluoro-4-pyridinyl)spiro[chromeno[2,3-c]pyridine-5,4′-[1,3]oxazol]-2′-amine], the IC50 in experiment [1] (setting [4]) was found to be 2.23 µM; in experiment [2], 0.856 µM.
The matching figures for `COCC1SC(N)=N[C@@]12c1cc(-c3cccnc3F)ccc1Oc1cnc(-c3ccnc(F)c3)cc12` (stereo partly drawn) [Example 1094, (5R)-7-(2-fluoro-3-pyridinyl)-3-(2-fluoro-4-pyridinyl)-5′-(methoxymethyl)spiro[chromeno[2,3-c]pyridine-5,4′-[1,3]thiazol]-2′-amine]: 0.128 µM and 0.0043 µM.
Take `Cc1cc(-c2cc3c(cn2)Oc2ccc(-c4ccccc4)cc2[C@@]32COC(N)=N2)on1` [Example 366, (5S)-3-(3-methyl-5-isoxazolyl)-7-phenylspiro[chromeno[2,3-c]pyridine-5,4′-[1,3]oxazol]-2′-amine]: the IC50 in experiment [1] (setting [3]) is 0.361 µM; in experiment [2], 0.0801 µM.
Regarding `NC1=N[C@@]2(CO1)c1cc(-c3cccnc3F)ccc1Oc1c2cc([C@H]2CCCCO2)nc1F` [Example 660, (5S)-1-fluoro-7-(2-fluoro-3-pyridinyl)-3-((2R)-tetrahydro-2H-pyran-2-yl)spiro[chromeno[2,3-c]pyridine-5,4′-[1,3]oxazol]-2′-amine], the IC50 in experiment [1] (setting [4]) amounted to 0.008 µM; in experiment [2] it was 0.0005 µM.
Regarding `COc1cncc(-c2ccc3c(c2)[C@@]2(COC(N)=N2)c2cc(C4=CCOCC4)ncc2O3)c1` [Example 144, (5S)-3-(3,6-dihydro-2H-pyran-4-yl)-7-(5-methoxy-3-pyridinyl)spiro[chromeno[2,3-c]pyridine-5,4′-[1,3]oxazol]-2′-amine], the IC50 in experiment [1] (setting [3]) was found to be 0.0088 µM; in experiment [2], 0.0016 µM.
As to `NC1=NC2(CS1)c1cc(-c3cccnc3F)ccc1Oc1c2cc(Cl)nc1F` (stereo not shown) [Example 611, 3-chloro-1-fluoro-7-(2-fluoro-3-pyridinyl)spiro[chromeno[2,3-c]pyridine-5,4′-[1,3]thiazol]-2′-amine], the results for the IC50 in experiment [1] (setting [4]) and in experiment [2] were 2.95 µM and 0.0061 µM, respectively.
Take `N#Cc1cccc(-c2ccc3c(c2)[C@@]2(COC(N)=N2)c2cc(N4CCC(F)(F)CC4)ncc2O3)c1` [Example 424, 3-((5S)-2′-amino-3-(4,4-difluoro-1-piperidinyl)spiro[chromeno[2,3-c]pyridine-5,4′-[1,3]oxazol]-7-yl)benzonitrile]: the figures for the IC50 in experiment [1] (setting [4]) and in experiment [2] were 0.018 µM and 0.0015 µM, respectively.
Take `CC#Cc1cncc(-c2cnc3c(c2)[C@]2(COC(N)=N2)c2cc(OC)ccc2O3)c1` [Example 775, (5S)-7-methoxy-3-(5-(1-propyn-1-yl)-3-pyridinyl)spiro[chromeno[2,3-b]pyridine-5,4′-[1,3]oxazol]-2′-amine]: the IC50 was not below 10 µM in experiment [1] (setting [3]) and 4.83 µM in experiment [2].
With `NC1=N[C@@]2(CO1)c1cc(-c3cccnc3F)ccc1Oc1ncc(C#CC3(O)COC3)cc12` [Example 519, 3-(((5S)-2′-amino-7-(2-fluoro-3-pyridinyl)spiro[chromeno[2,3-b]pyridine-5,4′-[1,3]oxazol]-3-yl)ethynyl)-3-oxetanol], the IC50 is 0.0297 µM in experiment [1] (setting [4]) and 0.0032 µM in experiment [2].
On to `NC1=N[C@@]2(CO1)c1cc(C3=CCOCC3)cnc1Oc1ccc(-c3cccnc3F)c(F)c12` [Example 347, (5S)-3-(3,6-dihydro-2H-pyran-4-yl)-6-fluoro-7-(2-fluoro-3-pyridinyl)spiro[chromeno[2,3-b]pyridine-5,4′-[1,3]oxazol]-2′-amine], for which the IC50 in experiment [1] (setting [3]) stood at 0.457 µM; in experiment [2], 0.356 µM.
Consider `CC1(COc2ccc3c(c2)[C@@]2(COC(N)=N2)c2cc(Br)cc(F)c2O3)COC1` [Example 437, (4S)-2′-bromo-4′-fluoro-7′-((3-methyl-3-oxetanyl)methoxy)spiro[1,3-oxazole-4,9′-xanthen]-2-amine], for which the results for the IC50 in experiment [1] (setting [4]) and in experiment [2] were 1.92 µM and 0.202 µM, respectively.
`NC1=N[C@@]2(CO1)c1cc(-c3c(F)ccnc3F)ccc1Oc1cnc([C@H]3CCCCO3)cc12` [Example 617, (5S)-7-(2,4-difluoro-3-pyridinyl)-3-((2R)-tetrahydro-2H-pyran-2-yl)spiro[chromeno[2,3-c]pyridine-5,4′-[1,3]oxazol]-2′-amine]: the IC50 in experiment [1] (average IC50, HEK cells) was 0.042 µM; in experiment [2], 0.0052 µM.
On to `NC1=N[C@@]2(CS1)c1cc(-c3cccnc3F)ccc1Oc1ncc(-c3ncccn3)cc12` [Example 728, (5S)-7-(2-fluoro-3-pyridinyl)-3-(2-pyrimidinyl)spiro[chromeno[2,3-b]pyridine-5,4′-[1,3]thiazol]-2′-amine], for which the figures for the IC50 in experiment [1] (setting [3]) and in experiment [2] were 0.08 µM and 0.0035 µM, respectively.
The corresponding values for `NC1=N[C@@]2(CO1)c1cc(-c3cncc(F)c3)ccc1Oc1c(F)cc([C@@H]3CCCOC3)cc12` [Example 284, (4S)-4′-fluoro-7′-(5-fluoro-3-pyridinyl)-2′-((3S)-tetrahydro-2H-pyran-3-yl)spiro[1,3-oxazole-4,9′-xanthen]-2-amine] are 0.0135 µM and 0.0022 µM.
The matching figures for `NC1=N[C@@]2(CO1)c1cc(-c3cncc(F)c3)ccc1Oc1c(F)cc(C3=CCCOC3)cc12` [Example 278, (4S)-2′-(5,6-dihydro-2H-pyran-3-yl)-4′-fluoro-7′-(5-fluoro-3-pyridinyl)spiro[1,3-oxazole-4,9′-xanthen]-2-amine]: 0.0039 µM and 0.0004 µM.
For `NC1=N[C@@]2(CO1)c1cc(-c3cccnc3F)ccc1Oc1c2cc(N2CC[C@@H](F)C2)nc1F` [Example 673, (5S)-1-fluoro-7-(2-fluoro-3-pyridinyl)-3-((3R)-3-fluoro-1-pyrrolidinyl)spiro[chromeno[2,3-c]pyridine-5,4′-[1,3]oxazol]-2′-amine], the IC50 stood at 0.003 µM in experiment [1] (setting [4]) and 0.0003 µM in experiment [2].
The corresponding values for `CC1(C)CC(c2ccc3c(c2)[C@]2(COC(N)=N2)c2cc(-c4cncnc4)c(F)cc2O3)=CCO1` [Example 505, (4R)-7′-(2,2-dimethyl-3,6-dihydro-2H-pyran-4-yl)-3′-fluoro-2′-(5-pyrimidinyl)spiro[1,3-oxazole-4,9′-xanthen]-2-amine] are 0.0125 µM and 0.0026 µM.
`CC(C)CSc1cnc2c(c1)[C@]1(COC(N)=N1)c1cc(-c3cccnc3)ccc1O2` [Example 184, (5S)-3-((2-methylpropyl)sulfanyl)-7-(3-pyridinyl)spiro[chromeno[2,3-b]pyridine-5,4′-[1,3]oxazol]-2′-amine]: the IC50 was 0.294 µM in experiment [1] (setting [3]) and 0.0141 µM in experiment [2].
On to `CC1(C)C[C@@H](c2cc3c(cn2)Oc2ccc(-c4ccc(F)nc4)cc2[C@@]32COC(N)=N2)CCO1` [Example 379, (5S)-3-((4S)-2,2-dimethyltetrahydro-2H-pyran-4-yl)-7-(6-fluoro-3-pyridinyl)spiro[chromeno[2,3-c]pyridine-5,4′-[1,3]oxazol]-2′-amine], for which the IC50 came to 0.176 µM in experiment [1] (setting [3]) and 0.0232 µM in experiment [2].
Turning to `COc1ccc(-c2cc3c(cn2)Oc2ccc(-c4cccc(Cl)c4)cc2[C@@]32COC(N)=N2)cc1F` [Example 535, (5S)-7-(3-chlorophenyl)-3-(3-fluoro-4-methoxyphenyl)spiro[chromeno[2,3-c]pyridine-5,4′-[1,3]oxazol]-2′-amine], the IC50 in experiment [1] (setting [4]) turned out to be 0.106 µM; in experiment [2] it was 0.0007 µM.
As for `CC(C)(O)CCc1ccc2c(c1)[C@]1(COC(N)=N1)c1cc(-c3cncnc3)c(F)cc1O2` [Example 96, (R)-4-(2-amino-3′-fluoro-2′-(pyrimidin-5-yl)-5H-spiro[oxazole-4,9′-xanthene]-7′-yl)-2-methylbutan-2-ol], the IC50 in experiment [1] (setting [3]) was found to be 0.0228 µM; in experiment [2], 0.0107 µM.
